Measurements as given in patent US20250042856A1, “CRYSTALLINE FORM OF (R)-2-(TERT-BUTYLAMINO)-1-(5-FLUOROPYRIDIN-3-YL)-ETHAN-1-OL HEMI-TARTRATE SALT FOR THE TREATMENT OF HYPERGLYCEMIA AND DIABETES 2” (ATROGI AB, priority 2021, published 2025).

Test: TGMS mass loss due to water after exposure to stress conditions
Type: physicochemical
Conditions: between 6° and 160° C., after 2 days at 40° C. and 75% RH

Q: For `CC(C)(C)NC[C@H](O)c1cncc(F)c1.O=C(O)C(=O)O` [Comparative Salt Example 9], which “mass loss (TGMS)” value is on record?
A: no significant mass loss
